Laboratory results taken from ChEMBL document CHEMBL4673175, “An epigrammatic status of the azole-based antimalarial drugs” (RSC Med Chem, 2020).
Values after ≈ are worked out from the molar mass of the structure shown.

Test system: Plasmodium
Assay: Antimalarial activity against Plasmodium
Format: functional

IC50	Structure (SMILES)
0.003 µg/mL (≈ 0.00639 µM)	C/C(=N\NC(=S)Nc1ccc(I)cc1)c1nc2cc(Cl)ccc2[nH]1
0.003 µg/mL (≈ 0.00802 µM)	COc1cccc(NC(=S)N/N=C(\C)c2nc3cc(Cl)ccc3[nH]2)c1
0.003 µg/mL (≈ 0.00857 µM)	C/C(=N\NC(=S)NC1CCCCC1)c1nc2cc(Cl)ccc2[nH]1
0.003 µg/mL (≈ 0.00727 µM)	C/C(=N\NC(=S)Nc1ccc(Cl)cc1Cl)c1nc2cc(Cl)ccc2[nH]1
0.003 µg/mL (≈ 0.00968 µM)	C/C(=N\NC(=S)NC(C)C)c1nc2cc(Cl)ccc2[nH]1
0.003 µg/mL (≈ 0.00926 µM)	C/C(=N\NC(=S)NC(C)(C)C)c1nc2cc(Cl)ccc2[nH]1
0.003 µg/mL (≈ 0.00926 µM)	CCCCNC(=S)N/N=C(\C)c1nc2cc(Cl)ccc2[nH]1
0.003 µg/mL (≈ 0.00872 µM)	C/C(=N\NC(=S)Nc1ccccc1)c1nc2cc(Cl)ccc2[nH]1
0.003 µg/mL (≈ 0.00772 µM)	C/C(=N\NC(=S)Nc1ccc([N+](=O)[O-])cc1)c1nc2cc(Cl)ccc2[nH]1
0.003 µg/mL (≈ 0.00793 µM)	C/C(=N\NC(=S)Nc1ccc(Cl)cc1)c1nc2cc(Cl)ccc2[nH]1
0.003 µg/mL (≈ 0.00802 µM)	COc1ccc(NC(=S)N/N=C(\C)c2nc3cc(Cl)ccc3[nH]2)cc1
0.003 µg/mL (≈ 0.00829 µM)	C/C(=N\NC(=S)Nc1ccc(F)cc1)c1nc2cc(Cl)ccc2[nH]1
0.003 µg/mL (≈ 0.00802 µM)	COc1ccccc1NC(=S)N/N=C(\C)c1nc2cc(Cl)ccc2[nH]1
0.003 µg/mL (≈ 0.00838 µM)	C/C(=N\NC(=S)NCc1ccccc1)c1nc2cc(Cl)ccc2[nH]1
0.003 µg/mL (≈ 0.00807 µM)	C/C(=N\NC(=S)NC(=O)c1ccccc1)c1nc2cc(Cl)ccc2[nH]1

Test system: Plasmodium falciparum
Assay: Antimalarial activity against chloroquine sensitive Plasmodium falciparum assessed as reduction in parasite growth incubated for 48 hrs
Format: functional, organism-based

Structure (SMILES)	IC50
Cc1cn(-c2c(C3CC(c4ccc(-c5ccccc5)cc4)=NN3)c(C)nn2-c2ccccc2)cn1 (centres undefined)	0.012 µg/mL (≈ 0.0262 µM)
Cc1nn(-c2ccccc2)c(-n2ccnc2)c1C1=CC(c2ccc(O)cc2)=NC2Nc3ccccc3N12 (centres undefined)	0.03 µg/mL (≈ 0.0618 µM)
Cc1cn(-c2c(C3CC(c4ccc(O)cc4)=NO3)c(C)nn2-c2ccccc2)cn1 (centres undefined)	0.012 µg/mL (≈ 0.03 µM)
Cc1cn(-c2c(C3CC(c4ccccc4)=NO3)c(C)nn2-c2ccccc2)cn1 (centres undefined)	0.012 µg/mL (≈ 0.0313 µM)
COc1ccc(C2=NNC(c3c(C)nn(-c4ccccc4)c3-n3cnc(C)c3)C2)cc1 (centres undefined)	0.012 µg/mL (≈ 0.0291 µM)
Cc1nn(-c2ccccc2)c(-n2ccnc2)c1C1CC(c2ccc(F)cc2)=NN1 (centres undefined)	0.012 µg/mL (≈ 0.0311 µM)
Cc1nn(-c2ccccc2)c(-n2ccnc2)c1C1CC(c2ccc(-c3ccccc3)cc2)=NN1 (centres undefined)	0.012 µg/mL (≈ 0.027 µM)
Cc1nn(-c2ccccc2)c(-n2ccnc2)c1C1=CC(c2cccs2)=NC2Nc3ccccc3N12 (centres undefined)	0.03 µg/mL (≈ 0.0631 µM)
Cc1nn(-c2ccccc2)c(-n2cncn2)c1C1=CC(c2ccc(O)cc2)=NC2Nc3ccccc3N12 (centres undefined)	0.03 µg/mL (≈ 0.0617 µM)
Cc1nn(-c2ccccc2)c(-n2ccnc2)c1C1CC(c2ccccc2)=NO1 (centres undefined)	0.012 µg/mL (≈ 0.0325 µM)
Cc1nn(-c2ccccc2)c(-n2ccnc2)c1C1CC(c2ccc(Br)cc2)=NO1 (centres undefined)	0.012 µg/mL (≈ 0.0268 µM)
Cc1nn(-c2ccccc2)c(-n2cncn2)c1C1=CC(c2cccs2)=NC2Nc3ccccc3N12 (centres undefined)	0.03 µg/mL (≈ 0.0629 µM)
Cc1nn(-c2ccccc2)c(-n2ccnc2)c1C1CC(c2ccc(-c3ccccc3)cc2)=NO1 (centres undefined)	0.012 µg/mL (≈ 0.0269 µM)
Cc1cn(-c2c(C3CC(c4ccc(F)cc4)=NO3)c(C)nn2-c2ccccc2)cn1 (centres undefined)	0.012 µg/mL (≈ 0.0299 µM)
Cc1nn(-c2ccccc2)c(-n2ccnc2)c1C1CC(c2ccc(F)cc2)=NO1 (centres undefined)	0.012 µg/mL (≈ 0.031 µM)
Cc1cn(-c2c(C3CC(c4ccccc4)=NN3)c(C)nn2-c2ccccc2)cn1 (centres undefined)	0.012 µg/mL (≈ 0.0314 µM)
COc1ccc(C2=NOC(c3c(C)nn(-c4ccccc4)c3-n3cnc(C)c3)C2)cc1 (centres undefined)	0.012 µg/mL (≈ 0.029 µM)
Cc1cn(-c2c(C3CC(c4ccc(O)cc4)=NN3)c(C)nn2-c2ccccc2)cn1 (centres undefined)	0.012 µg/mL (≈ 0.0301 µM)
Cc1cn(-c2c(C3CC(c4ccc(Br)cc4)=NN3)c(C)nn2-c2ccccc2)cn1 (centres undefined)	0.012 µg/mL (≈ 0.026 µM)
Cc1nn(-c2ccccc2)c(-n2cncn2)c1C1=CC(c2ccc(F)cc2)=NC2Nc3ccccc3N12 (centres undefined)	0.03 µg/mL (≈ 0.0614 µM)
COc1ccc(C2=NOC(c3c(C)nn(-c4ccccc4)c3-n3ccnc3)C2)cc1 (centres undefined)	0.012 µg/mL (≈ 0.03 µM)
COc1ccc(C2=NNC(c3c(C)nn(-c4ccccc4)c3-n3ccnc3)C2)cc1 (centres undefined)	0.012 µg/mL (≈ 0.0301 µM)
Cc1nn(-c2ccccc2)c(-n2cncn2)c1C1=CC(c2cc[nH]c2)=NC2Nc3ccccc3N12 (centres undefined)	0.03 µg/mL (≈ 0.0653 µM)
Cc1nn(-c2ccccc2)c(-n2ccnc2)c1C1CC(c2ccc(O)cc2)=NN1 (centres undefined)	0.012 µg/mL (≈ 0.0312 µM)
COc1ccc(C2=NC3Nc4ccccc4N3C(c3c(C)nn(-c4ccccc4)c3-n3cncn3)=C2)cc1 (centres undefined)	0.03 µg/mL (≈ 0.0599 µM)
Cc1nn(-c2ccccc2)c(-n2ccnc2)c1C1=CC(c2ccc(F)cc2)=NC2Nc3ccccc3N12 (centres undefined)	0.03 µg/mL (≈ 0.0615 µM)
Cc1nn(-c2ccccc2)c(-n2ccnc2)c1C1=CC(c2cc[nH]c2)=NC2Nc3ccccc3N12 (centres undefined)	0.03 µg/mL (≈ 0.0654 µM)
Cc1nn(-c2ccccc2)c(-n2cncn2)c1C1=CC(c2ccccc2)=NC2Nc3ccccc3N12 (centres undefined)	0.03 µg/mL (≈ 0.0638 µM)
Cc1nn(-c2ccccc2)c(-n2ccnc2)c1C1CC(c2ccccc2)=NN1 (centres undefined)	0.012 µg/mL (≈ 0.0326 µM)
